The subject of series [1] is K. pneumonia, 700603 (Kp). The series is classed as cell-based. The conditions noted are these: Mueller Hinton Broth.
Series [2] relates to E. coli O157:H7, BAA-1883 (Ec F).
The next series has as its system MRSA, 43300. The settings on record: Mueller Hinton Broth.
Another series deals with E. faecium, 700221 (Ef). The conditions noted are these: Mueller Hinton Broth.
The subject of series [3] is A. baumanii, BAA-747 (Ab).
Series [4] relates to H. influenzae, 49247 (Hi).
Series [5] deals with S. pneumoniae, 49619 (Sp).
The nature of a further series: in vitro. The settings on record: human.
Another series has as its system E. coli (ATCC 25922). As to the kind of experiment: Protein oxidation, quantitation of protein carbonyls in E. coli. The series is classed as cell-based. The conditions noted are these: 100 mM.
Series [6] in a line: Cytotoxicity toward human Huh7 liver cells.

Converted amounts (≈) assume the structure as drawn. Where two headings read alike, the source gives them in different places. Ends that are not written are not given here. Peptide text beside a SMILES is read from it. * marks the point of attachment. X4 = COCCOCCOCCOCCOCCOCCOCCOCCOCCOCCOCCOCCOCCOCCOCCOCCOCCOCCOCCOCCOCCOCCOCCOCCOCCOCCOCCOCCOCCOCCOCCOCCOCCOCCOCCOCCOCCOCCOCCOCCOCCOCCOCCOCCOCCOCCOCCOCCNC(=O)CCN1C(=O)CC(*)C1=O; X2 = COCCOCCOCCOCCOCCOCCOCCOCCOCCOCCOCCOCCOCCOCCOCCOCCOCCOCCOCCOCCOCCOCCOCCOCCNC(=O)CCN1C(=O)CC(*)C1=O; X1 = COCCOCCOCCOCCOCCOCCOCCOCCOCCOCCOCCOCCNC(=O)CCN1C(=O)CC(*)C1=O

Consider GGHGWRWYCR [PEP 204, GGHGWRWYCR], for which the “MIC Kp” value in series [1] was 4.7 µM. The “MIC Ec” value with E. coli, 25922 (Ec) (Mueller Hinton Broth) is 3.1 µM. Also, the “MIC Ec F” value in series [2] (Mueller Hinton Broth) was determined as 50 µM. Also, the “MIC MRSA” value against MRSA, 43300 was determined as 6.3 µM. In addition, the “MIC Ef” value against E. faecium, 700221 (Ef) came to 25.1 µM. For the same compound, the “MIC Pa” value against P. aeuginosa, 27583 (Pa) (Mueller Hinton Broth) came to 25 µM. Also, the “MIC Ab” value in series [3] (Mueller Hinton Broth) is 25.1 µM.
Take “GGHRRWKIVVIRWRRGGC [PEP 314, GGHRRWKIVVIRWRRGGC]”: the “MIC Kp” value in series [1] was 14.6 µM. In addition, the “MIC Ec” value with E. coli, 25922 (Ec) (25922 (Ec)) was found to be 14.6 µM. Further, in the series on P. aeuginosa, 27583 (Pa), the “MIC Pa” value was 14.6 µM. Besides, in series [3] (BAA-747), the “MIC Ab” value is 7.3 µM. Also, the “MIC Sa” value against S. aureus, 29213 (Sa) (29213 (Sa)) was 29.2 µM. The “MIC Hi” value in series [4] turned out to be 3.7 µM. Moreover, the “MIC Sp” value in [5] (49619 (Sp)) is 0.9 µM. Moreover, half-maximal inhibition in the series “in vitro” (IC50) was put at 17 µM.
GGHGEYVLRNWRIVKVATTKAC [PEP 193]: the “MIC MRSA” value against MRSA, 43300 was found to be 13 µM.
In the case of GGHGIRRIIRKIIHIIKKGGC [PEP 311], the “MIC Kp” value in series [1] worked out at 7.9 µM. The “MIC Ec” value against E. coli, 25922 (Ec) (Mueller Hinton Broth) worked out at 7.9 µM. In series [2] (Mueller Hinton Broth), the “MIC Ec F” value stood at 4 µM. In the series on E. faecium, 700221 (Ef), the “MIC Ef” value is 4 µM. Also, in the series on P. aeuginosa, 27583 (Pa) (Mueller Hinton Broth), the “MIC Pa” value is 15.8 µM. In addition, the “MIC Ab” value in [3] (Mueller Hinton Broth) is 2 µM. For the same compound, the “MIC Sa” value with S. aureus, 29213 (Sa) (Mueller Hinton Broth) is 7.9 µM. The “MIC Hi” value in [4] is 31.7 µM. In series [5] (Mueller Hinton Broth), the “MIC Sp” value was found to be 15.8 µM.
Consider DOTA-Ampicillin [DOTAMP], for which the “MIC Ec” value in the series on E. coli, 25922 (Ec) (Mueller Hinton Broth) was 42.5 µM. In series [2] (Mueller Hinton Broth), the “MIC Ec F” value came to 42.5 µM. Also, the “MIC MRSA” value against MRSA, 43300 came to 42.5 µM.
Turning to `OO` [H2O2, Hydrogen Peroxide], the “Protein Carbonyls (nmol/mg protein)” value with E. coli (ATCC 25922) (2 hours (PEP 188 table)) turned out to be 0.87 nmol/mg protein; in the series with E. coli (ATCC 25922) (2 hours, average of 2 separate experiments (PEP 189 table)), 0.44 nmol/mg protein.
As to GGHTRQARRNRR [PEP 205, GGHTRQARRNRR], in the series on P. aeuginosa, 27583 (Pa), the “MIC Pa” value was 43.7 µM.
Turning to GGHGWRWYCRGGK [PEP 323, GGHGWRWYCRGGK], the “MIC Kp” value in series [1] was found to be 20.9 µM. The “MIC Ec” value in the series with E. coli, 25922 (Ec) (25922 (Ec)) is 20.9 µM. Further, in the series with P. aeuginosa, 27583 (Pa), the “MIC Pa” value is 20.9 µM. Besides, in [3] (BAA-747), the “MIC Ab” value is 20.9 µM. For the same compound, the “MIC Hi” value in series [4] was 1.5 µM.
`CC[C@H](C)[C@H](NC(=O)[C@H](CCCCN)NC(=O)[C@H](Cc1c[nH]c2ccccc12)NC(=O)[C@H](CCCNC(=N)N)NC(=O)[C@H](CCCNC(=N)N)NC(=O)[C@H](Cc1c[nH]cn1)NC(=O)CNC(=O)CN)C(=O)N[C@H](C(=O)N[C@H](C(=O)N[C@H](C(=O)N[C@@H](CCCNC(=N)N)C(=O)N[C@@H](Cc1c[nH]c2ccccc12)C(=O)N[C@@H](CCCNC(=N)N)C(=O)N[C@@H](CCCNC(=N)N)C(=O)NCC(=O)NCC(=O)N[C@@H](CSC1CC(=O)N(CCC(=O)NCCOCCOCCOCCOCCOCCOCCOCCOCCOCCOCCOCCOCCOCCOCCOCCOCCOCCOCCOCCOCCOCCOCCOCCOC)C1=O)C(=O)O)[C@@H](C)CC)C(C)C)C(C)C` (stereo partly drawn) [PEP 314 PEG 24] (H-GGHRRWKIVVIRWRRGGC(X2)-OH; C-terminus assumed): the “MIC Ec F” value in series [2] (O157:H7) turned out to be 9.3 µM (≈ 31.9 µg/mL). For the same compound, the “MIC Sp” value in series [5] (49619 (Sp)) came to 4.7 µM (≈ 16.1 µg/mL). Moreover, the IC50 (as a rule, the concentration that inhibits the measured activity by half) in series [6] is over 200 µM.
Regarding GGHWRWYCRGGK [PEP 322, GGHWRWYCRGGK], the “MIC Kp” value in [1] is 7.6 µM. Moreover, in series [4], the “MIC Hi” value turned out to be 2.7 µM.
In the case of “GGHGRRWKIVVIRWRRGGC [PEP 321, GGHGRRWKIVVIRWRRGGC]”, the “MIC Kp” value in [1] was 14.2 µM. The “MIC Ec F” value in [2] (Mueller Hinton Broth) turned out to be 14.2 µM. Moreover, the “MIC MRSA” value in the series on MRSA, 43300 was determined as 14.2 µM. For the same compound, in the series on E. faecium, 700221 (Ef), the “MIC Ef” value was 7.1 µM. In addition, the “MIC Ab” value in series [3] (Mueller Hinton Broth) stood at 28.4 µM. Besides, the “MIC Hi” value in series [4] stood at 14.2 µM. Further, the “MIC Sp” value in series [5] (Mueller Hinton Broth) stood at 1.8 µM.
As to `CC[C@H](C)[C@H](NC(=O)[C@H](Cc1c[nH]cn1)NC(=O)CNC(=O)CN)C(=O)N[C@@H](CCCNC(=N)N)C(=O)N[C@@H](CCCNC(=N)N)C(=O)N[C@H](C(=O)N[C@H](C(=O)N[C@@H](CCCNC(=N)N)C(=O)N[C@@H](CCCCN)C(=O)N[C@H](C(=O)N[C@H](C(=O)N[C@@H](Cc1c[nH]cn1)C(=O)N[C@H](C(=O)N[C@H](C(=O)N[C@@H](CCCCN)C(=O)N[C@@H](CCCCN)C(=O)NCC(=O)NCC(=O)N[C@@H](CSC1CC(=O)N(CCC(=O)NCCOCCOCCOCCOCCOCCOCCOCCOCCOCCOCCOCCOC)C1=O)C(=O)O)[C@@H](C)CC)[C@@H](C)CC)[C@@H](C)CC)[C@@H](C)CC)[C@@H](C)CC)[C@@H](C)CC` (stereo partly drawn) [PEP 318 PEG 12] (H-GGHIRRIIRKIIHIIKKGGC(X1)-OH; C-terminus assumed), the “MIC Kp” value in [1] was found to be 21.4 µM (≈ 63.8 µg/mL). Also, the “MIC Ec” value with E. coli, 25922 (Ec) (25922 (Ec)) stood at 10.7 µM (≈ 31.9 µg/mL). For the same compound, the “MIC Ec F” value in series [2] (O157:H7) worked out at 5.4 µM (≈ 16.1 µg/mL). Moreover, the “MIC Ab” value in series [3] (BAA-747) is 5.4 µM (≈ 16.1 µg/mL). Moreover, the “MIC Hi” value in series [4] is 2.7 µM (≈ 8.05 µg/mL). In series [5] (49619 (Sp)), the “MIC Sp” value was 5.4 µM (≈ 16.1 µg/mL). The “MIC Bc” value in the series on B. cepacia, 25416 (Bc) worked out at 2.7 µM (≈ 8.05 µg/mL). For the same compound, in series [6], the IC50 was determined as 150 µM.
On to GGHIRRIIRKIIHIIKKGGC [PEP 318], for which the “MIC Kp” value in [1] was found to be 28.2 µM. For the same compound, in the series with E. coli, 25922 (Ec) (25922 (Ec)), the “MIC Ec” value is 7 µM. The “MIC Pa” value against P. aeuginosa, 27583 (Pa) came to 28.2 µM. The “MIC Ab” value in series [3] (BAA-747) was 7 µM. The “MIC Sa” value with S. aureus, 29213 (Sa) (29213 (Sa)) was found to be 14.1 µM. The “MIC Sp” value in series [5] (49619 (Sp)) worked out at 3.5 µM. For the same compound, in the series “in vitro”, 41 µM corresponded to half-maximal inhibition (IC50).
`CC[C@H](C)[C@H](NC(=O)[C@H](CCCCN)NC(=O)[C@H](Cc1c[nH]c2ccccc12)NC(=O)[C@H](CCCNC(=N)N)NC(=O)[C@H](CCCNC(=N)N)NC(=O)[C@H](Cc1c[nH]cn1)NC(=O)CNC(=O)CN)C(=O)N[C@H](C(=O)N[C@H](C(=O)N[C@H](C(=O)N[C@@H](CCCNC(=N)N)C(=O)N[C@@H](Cc1c[nH]c2ccccc12)C(=O)N[C@@H](CCCNC(=N)N)C(=O)N[C@@H](CCCNC(=N)N)C(=O)NCC(=O)NCC(=O)N[C@@H](CSC1CC(=O)N(CCC(=O)NCCOCCOCCOCCOCCOCCOCCOCCOCCOCCOCCOCCOCCOCCOCCOCCOCCOCCOCCOCCOCCOCCOCCOCCOCCOCCOCCOCCOCCOCCOCCOCCOCCOCCOCCOCCOCCOCCOCCOCCOCCOCCOCCOCCOCCOCCOCCOCCOC)C1=O)C(=O)O)[C@@H](C)CC)C(C)C)C(C)C` (stereo partly drawn) [PEP 314 PEG 48] (H-GGHRRWKIVVIRWRRGGC(X4)-OH; C-terminus assumed): the “MIC Sp” value in [5] (49619 (Sp)) was determined as 7.1 µM (≈ 31.9 µg/mL). The IC50 in [6] is over 200 µM.
`CC[C@H](C)[C@H](NC(=O)[C@H](Cc1c[nH]cn1)NC(=O)CNC(=O)CN)C(=O)N[C@@H](CC(C)C)C(=O)N1CCC[C@H]1C(=O)N[C@@H](Cc1c[nH]c2ccccc12)C(=O)N[C@@H](CCCCN)C(=O)N[C@@H](Cc1c[nH]c2ccccc12)C(=O)N1CCC[C@H]1C(=O)N[C@@H](Cc1c[nH]c2ccccc12)C(=O)N[C@@H](Cc1c[nH]c2ccccc12)C(=O)N1CCC[C@H]1C(=O)N[C@@H](Cc1c[nH]c2ccccc12)C(=O)N[C@@H](CCCNC(=N)N)C(=O)N[C@@H](CCCNC(=N)N)C(=O)NCC(=O)NCC(=O)N[C@@H](CS)C(=O)O` [PEP 316, GGHILPWKWPWWPWRRGGC]: the “MIC Hi” value in series [4] stood at 13.5 µM (≈ 32.1 µg/mL).

For the origin of these results see patent US8933016B2, “Metallodrugs having improved pharmacological properties and methods of manufacture and use thereof” (priority 2012, dated 2015).
